Reference: ChEMBL document CHEMBL3877313, “3,4-Dihydropyrimidinone-coumarin analogues as a new class of selective agent against S. aureus: Synthesis, biological evaluation and molecular modelling study” (2017)
≈ marks a conversion by molar mass, not a printed value.

Target: 72 kDa type IV collagenase (Homo sapiens) (UniProt P08253)
Test: Inhibition of MMP2 in inflamed tissue isolated from chronic periodontitis patient at 500 ug/l after 15 to 30 mins by gelatin zymographic method relative to control
Conditions: not given

Chain of 72 kDa type IV collagenase (Homo sapiens) (P08253 110-660 limits assumed): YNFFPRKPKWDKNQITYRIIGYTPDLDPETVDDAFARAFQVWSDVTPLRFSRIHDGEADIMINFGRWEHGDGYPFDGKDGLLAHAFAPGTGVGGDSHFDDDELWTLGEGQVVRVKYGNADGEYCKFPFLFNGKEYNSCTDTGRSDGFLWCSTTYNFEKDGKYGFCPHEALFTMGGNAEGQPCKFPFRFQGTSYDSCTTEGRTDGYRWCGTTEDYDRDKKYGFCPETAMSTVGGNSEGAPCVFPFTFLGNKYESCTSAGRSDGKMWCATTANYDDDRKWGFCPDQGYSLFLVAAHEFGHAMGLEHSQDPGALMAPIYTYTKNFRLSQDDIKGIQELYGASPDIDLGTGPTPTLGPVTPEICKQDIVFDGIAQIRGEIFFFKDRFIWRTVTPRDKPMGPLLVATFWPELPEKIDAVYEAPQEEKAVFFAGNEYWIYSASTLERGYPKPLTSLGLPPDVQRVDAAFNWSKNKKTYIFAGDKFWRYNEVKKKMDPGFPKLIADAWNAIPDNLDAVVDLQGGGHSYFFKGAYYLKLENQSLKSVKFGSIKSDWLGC

Q: How did the inhibition turn out when `CCOC(=O)C1=C(C)NC(=O)NC1c1cc(=O)oc2c1ccc1ccccc12` (configuration not stated) was run?
A: Its inhibition is 96%.

Q: `CCOC(=O)C1=C(C)NC(=O)NC1c1cc(=O)oc2ccc(C)cc12` (configuration not stated) was tested. Which inhibition did it give?
A: Its inhibition is 90%.

Q: For `CCOC(=O)C1=C(C)NC(=O)NC1c1cc(=O)oc2cc(C)ccc12` (configuration not stated), which inhibition is on record?
A: Its inhibition is 95%.

Q: How did the inhibition turn out when `CCOC(=O)C1=C(C)NC(=S)NC1c1cc(=O)oc2ccc(C)cc12` (configuration not stated) was run?
A: The inhibition was 82%.

Q: `CCOC(=O)C1=C(C)NC(=O)NC1c1cc(=O)oc2ccc(Cl)cc12` (configuration not stated) was tested. Which inhibition did it give?
A: The inhibition was 85%.

Q: Which inhibition does the source give for `CCOC(=O)C1=C(C)NC(=S)NC1c1cc(=O)oc2c1ccc1ccccc12` (configuration not stated) here?
A: The inhibition was 90%.

Q: How did the inhibition turn out when `CCOC(=O)C1=C(C)NC(=O)NC1c1cc(=O)oc2ccc(OC)cc12` (configuration not stated) was run?
A: Its inhibition is 95%.

Q: Which inhibition does the source give for `CCOC(=O)C1=C(C)NC(=S)NC1c1cc(=O)oc2cc(C)ccc12` (configuration not stated) here?
A: Its inhibition is 80%.

Q: With `CN(C)[C@@H]1C(O)=C(C(N)=O)C(=O)[C@@]2(O)C(O)=C3C(=O)c4c(O)cccc4[C@@](C)(O)[C@H]3C[C@@H]12` as the compound, how does the inhibition read?
A: The inhibition was 100%.

Q: Which inhibition does the source give for `CCOC(=O)C1=C(C)NC(=S)NC1c1cc(=O)oc2ccc(OC)cc12` (configuration not stated) here?
A: The inhibition was 87%.

Q: With `CCOC(=O)C1=C(C)NC(=S)NC1c1cc(=O)oc2ccc(Cl)cc12` (configuration not stated) as the compound, how does the inhibition read?
A: Its inhibition is 85%.

Tested on: Pseudomonas aeruginosa
Test: Antibacterial activity against Pseudomonas aeruginosa ATCC 25619 after 24 hrs by broth microdilution method
Format: functional
Conditions: ATCC 25619, 24 h

Q: How did the MIC turn out when `CCOC(=O)C1=C(C)NC(=O)NC1c1cc(=O)oc2c1ccc1ccccc12` (configuration not stated) was run?
A: Its MIC is 25 µg/mL (≈ 66.1 µM).

Q: With `CCOC(=O)C1=C(C)NC(=O)NC1c1cc(=O)oc2ccc(C)cc12` (configuration not stated) as the compound, how does the MIC read?
A: The MIC was 100 µg/mL (≈ 292 µM).

Q: `CCOC(=O)C1=C(C)NC(=O)NC1c1cc(=O)oc2cc(C)ccc12` (configuration not stated) was tested. Which MIC did it give?
A: The MIC was 100 µg/mL (≈ 292 µM).

Q: How did the MIC turn out when `CCOC(=O)C1=C(C)NC(=S)NC1c1cc(=O)oc2ccc(C)cc12` (configuration not stated) was run?
A: The MIC was 100 µg/mL (≈ 279 µM).

Q: With `O=C(O)c1cn(C2CC2)c2cc(N3CCNCC3)c(F)cc2c1=O` [CIPROFLOXACIN] as the compound, how does the MIC read?
A: Its MIC is less than 4 µg/mL.

Q: For `CCOC(=O)C1=C(C)NC(=O)NC1c1cc(=O)oc2ccc(Cl)cc12` (configuration not stated), which MIC is on record?
A: The MIC was 50 µg/mL (≈ 138 µM).

Q: How did the MIC turn out when `CCOC(=O)C1=C(C)NC(=S)NC1c1cc(=O)oc2c1ccc1ccccc12` (configuration not stated) was run?
A: The MIC was 100 µg/mL (≈ 254 µM).

Q: For `CCOC(=O)C1=C(C)NC(=O)NC1c1cc(=O)oc2ccc(OC)cc12` (configuration not stated), which MIC is on record?
A: Its MIC is 25 µg/mL (≈ 69.8 µM).

Q: Which MIC does the source give for `CCOC(=O)C1=C(C)NC(=S)NC1c1cc(=O)oc2cc(C)ccc12` (configuration not stated) here?
A: The MIC was 100 µg/mL (≈ 279 µM).

Q: For `CCOC(=O)C1=C(C)NC(=S)NC1c1cc(=O)oc2ccc(OC)cc12` (configuration not stated), which MIC is on record?
A: The MIC was 100 µg/mL (≈ 267 µM).

Q: Which MIC does the source give for `CCOC(=O)C1=C(C)NC(=S)NC1c1cc(=O)oc2ccc(Cl)cc12` (configuration not stated) here?
A: The MIC was 100 µg/mL (≈ 264 µM).

Target: Matrix metalloproteinase-9 (Homo sapiens) (UniProt P14780)
Test: Inhibition of MMP9 in inflamed tissue isolated from chronic periodontitis patient at 500 ug/l after 15 to 30 mins by gelatin zymographic method relative to control
Conditions: not given

Chain of Matrix metalloproteinase-9 (Homo sapiens) (P14780 whole entry): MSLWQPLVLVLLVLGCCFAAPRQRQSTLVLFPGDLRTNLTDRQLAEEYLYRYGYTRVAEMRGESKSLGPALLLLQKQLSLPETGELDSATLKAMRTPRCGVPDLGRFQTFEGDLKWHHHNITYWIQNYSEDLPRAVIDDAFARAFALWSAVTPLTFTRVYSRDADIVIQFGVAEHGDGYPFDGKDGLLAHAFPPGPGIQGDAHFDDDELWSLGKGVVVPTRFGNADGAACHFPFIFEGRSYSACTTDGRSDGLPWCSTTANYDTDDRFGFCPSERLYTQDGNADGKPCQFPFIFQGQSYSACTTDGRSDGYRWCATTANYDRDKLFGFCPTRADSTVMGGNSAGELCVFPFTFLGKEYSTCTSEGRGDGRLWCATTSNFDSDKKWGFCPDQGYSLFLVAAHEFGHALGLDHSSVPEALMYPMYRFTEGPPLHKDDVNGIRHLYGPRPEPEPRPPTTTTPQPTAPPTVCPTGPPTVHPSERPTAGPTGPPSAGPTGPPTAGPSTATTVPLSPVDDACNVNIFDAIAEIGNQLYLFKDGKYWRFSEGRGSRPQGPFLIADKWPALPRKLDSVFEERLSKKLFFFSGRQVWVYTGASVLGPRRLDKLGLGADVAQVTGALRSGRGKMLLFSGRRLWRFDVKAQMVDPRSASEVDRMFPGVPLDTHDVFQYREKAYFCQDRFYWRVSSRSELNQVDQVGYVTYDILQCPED

Q: How did the inhibition turn out when `CCOC(=O)C1=C(C)NC(=O)NC1c1cc(=O)oc2c1ccc1ccccc12` (configuration not stated) was run?
A: The inhibition was 90%.

Q: `CCOC(=O)C1=C(C)NC(=O)NC1c1cc(=O)oc2ccc(C)cc12` (configuration not stated) was tested. Which inhibition did it give?
A: Its inhibition is 80%.

Q: How did the inhibition turn out when `CCOC(=O)C1=C(C)NC(=O)NC1c1cc(=O)oc2cc(C)ccc12` (configuration not stated) was run?
A: Its inhibition is 70%.

Q: How did the inhibition turn out when `CCOC(=O)C1=C(C)NC(=S)NC1c1cc(=O)oc2c1ccc1ccccc12` (configuration not stated) was run?
A: The inhibition was 95%.

Q: For `CCOC(=O)C1=C(C)NC(=O)NC1c1cc(=O)oc2ccc(OC)cc12` (configuration not stated), which inhibition is on record?
A: The inhibition was 85%.

Q: With `CCOC(=O)C1=C(C)NC(=S)NC1c1cc(=O)oc2cc(C)ccc12` (configuration not stated) as the compound, how does the inhibition read?
A: Its inhibition is 30%.

Q: How did the inhibition turn out when `CN(C)[C@@H]1C(O)=C(C(N)=O)C(=O)[C@@]2(O)C(O)=C3C(=O)c4c(O)cccc4[C@@](C)(O)[C@H]3C[C@@H]12` was run?
A: The inhibition was 100%.

Q: For `CCOC(=O)C1=C(C)NC(=S)NC1c1cc(=O)oc2ccc(OC)cc12` (configuration not stated), which inhibition is on record?
A: Its inhibition is 10%.

Tested on: Bacillus subtilis
Test: Antibacterial activity against Bacillus subtilis ATCC 23857 after 24 hrs by broth microdilution method
Format: functional
Conditions: ATCC 23857, 24 h

Q: `CCOC(=O)C1=C(C)NC(=O)NC1c1cc(=O)oc2c1ccc1ccccc12` (configuration not stated) was tested. Which MIC did it give?
A: The MIC was 100 µg/mL (≈ 264 µM).

Q: `CCOC(=O)C1=C(C)NC(=O)NC1c1cc(=O)oc2ccc(C)cc12` (configuration not stated) was tested. Which MIC did it give?
A: The MIC was 12.5 µg/mL (≈ 36.5 µM).

Q: With `CCOC(=O)C1=C(C)NC(=O)NC1c1cc(=O)oc2cc(C)ccc12` (configuration not stated) as the compound, how does the MIC read?
A: The MIC was 50 µg/mL (≈ 146 µM).

Q: How did the MIC turn out when `CCOC(=O)C1=C(C)NC(=S)NC1c1cc(=O)oc2ccc(C)cc12` (configuration not stated) was run?
A: Its MIC is 100 µg/mL (≈ 279 µM).

Q: For `O=C(O)c1cn(C2CC2)c2cc(N3CCNCC3)c(F)cc2c1=O` [CIPROFLOXACIN], which MIC is on record?
A: Its MIC is 2 µg/mL (≈ 6.04 µM).

Q: For `CCOC(=O)C1=C(C)NC(=O)NC1c1cc(=O)oc2ccc(Cl)cc12` (configuration not stated), which MIC is on record?
A: Its MIC is 100 µg/mL (≈ 276 µM).

Q: How did the MIC turn out when `CCOC(=O)C1=C(C)NC(=S)NC1c1cc(=O)oc2c1ccc1ccccc12` (configuration not stated) was run?
A: Its MIC is 100 µg/mL (≈ 254 µM).

Q: How did the MIC turn out when `CCOC(=O)C1=C(C)NC(=O)NC1c1cc(=O)oc2ccc(OC)cc12` (configuration not stated) was run?
A: Its MIC is 100 µg/mL (≈ 279 µM).

Q: For `CCOC(=O)C1=C(C)NC(=S)NC1c1cc(=O)oc2cc(C)ccc12` (configuration not stated), which MIC is on record?
A: The MIC was 50 µg/mL (≈ 140 µM).

Q: With `CCOC(=O)C1=C(C)NC(=S)NC1c1cc(=O)oc2ccc(OC)cc12` (configuration not stated) as the compound, how does the MIC read?
A: The MIC was 50 µg/mL (≈ 134 µM).

Q: For `CCOC(=O)C1=C(C)NC(=S)NC1c1cc(=O)oc2ccc(Cl)cc12` (configuration not stated), which MIC is on record?
A: The MIC was 50 µg/mL (≈ 132 µM).

Tested on: Staphylococcus aureus
Test: Antibacterial activity against Staphylococcus aureus ATCC 12598 after 24 hrs by broth microdilution method
Format: functional
Conditions: ATCC 12598, 24 h

Q: For `CCOC(=O)C1=C(C)NC(=O)NC1c1cc(=O)oc2c1ccc1ccccc12` (configuration not stated), which MIC is on record?
A: Its MIC is 0.4 µg/mL (≈ 1.06 µM).

Q: With `CCOC(=O)C1=C(C)NC(=O)NC1c1cc(=O)oc2ccc(C)cc12` (configuration not stated) as the compound, how does the MIC read?
A: Its MIC is 0.4 µg/mL (≈ 1.17 µM).

Q: How did the MIC turn out when `CCOC(=O)C1=C(C)NC(=O)NC1c1cc(=O)oc2cc(C)ccc12` (configuration not stated) was run?
A: Its MIC is 0.2 µg/mL (≈ 0.584 µM).

Q: `CCOC(=O)C1=C(C)NC(=S)NC1c1cc(=O)oc2ccc(C)cc12` (configuration not stated) was tested. Which MIC did it give?
A: The MIC was 0.4 µg/mL (≈ 1.12 µM).

Q: How did the MIC turn out when `O=C(O)c1cn(C2CC2)c2cc(N3CCNCC3)c(F)cc2c1=O` [CIPROFLOXACIN] was run?
A: Its MIC is 2 µg/mL (≈ 6.04 µM).

Q: `CCOC(=O)C1=C(C)NC(=O)NC1c1cc(=O)oc2ccc(Cl)cc12` (configuration not stated) was tested. Which MIC did it give?
A: The MIC was 3.12 µg/mL (≈ 8.6 µM).

Q: With `CCOC(=O)C1=C(C)NC(=S)NC1c1cc(=O)oc2c1ccc1ccccc12` (configuration not stated) as the compound, how does the MIC read?
A: Its MIC is 0.4 µg/mL (≈ 1.01 µM).

Q: `CCOC(=O)C1=C(C)NC(=O)NC1c1cc(=O)oc2ccc(OC)cc12` (configuration not stated) was tested. Which MIC did it give?
A: Its MIC is 0.8 µg/mL (≈ 2.23 µM).

Q: Which MIC does the source give for `CCOC(=O)C1=C(C)NC(=S)NC1c1cc(=O)oc2cc(C)ccc12` (configuration not stated) here?
A: Its MIC is 6.25 µg/mL (≈ 17.4 µM).

Q: With `CCOC(=O)C1=C(C)NC(=S)NC1c1cc(=O)oc2ccc(OC)cc12` (configuration not stated) as the compound, how does the MIC read?
A: The MIC was 0.8 µg/mL (≈ 2.14 µM).

Q: With `CCOC(=O)C1=C(C)NC(=S)NC1c1cc(=O)oc2ccc(Cl)cc12` (configuration not stated) as the compound, how does the MIC read?
A: The MIC was 0.8 µg/mL (≈ 2.11 µM).

Tested on: Escherichia coli
Test: Antibacterial activity against Escherichia coli ATCC 25922 after 24 hrs by broth microdilution method
Format: functional
Conditions: ATCC 25922, 24 h

Q: How did the MIC turn out when `CCOC(=O)C1=C(C)NC(=O)NC1c1cc(=O)oc2c1ccc1ccccc12` (configuration not stated) was run?
A: The MIC was 25 µg/mL (≈ 66.1 µM).

Q: Which MIC does the source give for `CCOC(=O)C1=C(C)NC(=O)NC1c1cc(=O)oc2ccc(C)cc12` (configuration not stated) here?
A: The MIC was 50 µg/mL (≈ 146 µM).

Q: `CCOC(=O)C1=C(C)NC(=O)NC1c1cc(=O)oc2cc(C)ccc12` (configuration not stated) was tested. Which MIC did it give?
A: Its MIC is 12.5 µg/mL (≈ 36.5 µM).

Q: With `CCOC(=O)C1=C(C)NC(=S)NC1c1cc(=O)oc2ccc(C)cc12` (configuration not stated) as the compound, how does the MIC read?
A: The MIC was 1.6 µg/mL (≈ 4.46 µM).

Q: `CCOC(=O)C1=C(C)NC(=O)NC1c1cc(=O)oc2ccc(Cl)cc12` (configuration not stated) was tested. Which MIC did it give?
A: Its MIC is 25 µg/mL (≈ 68.9 µM).

Q: For `CCOC(=O)C1=C(C)NC(=S)NC1c1cc(=O)oc2c1ccc1ccccc12` (configuration not stated), which MIC is on record?
A: The MIC was 0.4 µg/mL (≈ 1.01 µM).

Q: Which MIC does the source give for `CCOC(=O)C1=C(C)NC(=O)NC1c1cc(=O)oc2ccc(OC)cc12` (configuration not stated) here?
A: The MIC was 50 µg/mL (≈ 140 µM).

Q: How did the MIC turn out when `CCOC(=O)C1=C(C)NC(=S)NC1c1cc(=O)oc2cc(C)ccc12` (configuration not stated) was run?
A: Its MIC is 25 µg/mL (≈ 69.8 µM).

Q: Which MIC does the source give for `CCOC(=O)C1=C(C)NC(=S)NC1c1cc(=O)oc2ccc(OC)cc12` (configuration not stated) here?
A: Its MIC is 25 µg/mL (≈ 66.8 µM).

Q: For `CCOC(=O)C1=C(C)NC(=S)NC1c1cc(=O)oc2ccc(Cl)cc12` (configuration not stated), which MIC is on record?
A: The MIC was 0.4 µg/mL (≈ 1.06 µM).
